Converted amounts (≈) assume the structure as drawn. Where two headings read alike, the source gives them in different places.

The values that follow come from patent publication US12263180B2, “Method for treatment of COVID-19-associated conditions” (priority 2020, dated 2025).

One series has as its system MUC1. As to conditions: mouse model of ALI; cited from earlier work.
Series [1] can be described thus: water solubility in aqueous buffer under physiological conditions.
For another series, the system named is LPS-induced ALI. As to conditions: mice; cited from earlier work.
Another series relates to human neutrophils. The note with it: in vitro; cited from earlier work.
For series [2] the following is noted: in vivo.
For series [3] the following is noted: human, in vivo; cited from earlier work.
The test system of series [4] is chronic immune thrombocytopenia (ITP). As to conditions: ITP patients, two randomized studies; cited from earlier work.
In a further series the test system is IL-6. As to conditions: RA patients, within the first week of treatment; cited from earlier work.
Another series can be described thus: physchem. As to conditions: aqueous buffer.
Series [5] deals with COVID-19. The series is described as follows: Phase 3 placebo-controlled study in hospitalized COVID-19 patients. It counts as in vivo.
Series [6] concerns SARS-CoV-2 as well as other human and bat coronaviruses. As to conditions: human airway epithelial cells; cited from earlier work.
For series [7] the test system is unchanged. The note with it: mice; cited from earlier work.
In series [8] the test system is COVID-19. The note with it: critically ill COVID-19 patients, compared to standard care; cited from earlier work.
In the next series the target is human ACE2 (Homo sapiens, UniProt Q9BYF1). The note with it: cited from earlier work.
human ACE2, sequence (Q9BYF1 18-805): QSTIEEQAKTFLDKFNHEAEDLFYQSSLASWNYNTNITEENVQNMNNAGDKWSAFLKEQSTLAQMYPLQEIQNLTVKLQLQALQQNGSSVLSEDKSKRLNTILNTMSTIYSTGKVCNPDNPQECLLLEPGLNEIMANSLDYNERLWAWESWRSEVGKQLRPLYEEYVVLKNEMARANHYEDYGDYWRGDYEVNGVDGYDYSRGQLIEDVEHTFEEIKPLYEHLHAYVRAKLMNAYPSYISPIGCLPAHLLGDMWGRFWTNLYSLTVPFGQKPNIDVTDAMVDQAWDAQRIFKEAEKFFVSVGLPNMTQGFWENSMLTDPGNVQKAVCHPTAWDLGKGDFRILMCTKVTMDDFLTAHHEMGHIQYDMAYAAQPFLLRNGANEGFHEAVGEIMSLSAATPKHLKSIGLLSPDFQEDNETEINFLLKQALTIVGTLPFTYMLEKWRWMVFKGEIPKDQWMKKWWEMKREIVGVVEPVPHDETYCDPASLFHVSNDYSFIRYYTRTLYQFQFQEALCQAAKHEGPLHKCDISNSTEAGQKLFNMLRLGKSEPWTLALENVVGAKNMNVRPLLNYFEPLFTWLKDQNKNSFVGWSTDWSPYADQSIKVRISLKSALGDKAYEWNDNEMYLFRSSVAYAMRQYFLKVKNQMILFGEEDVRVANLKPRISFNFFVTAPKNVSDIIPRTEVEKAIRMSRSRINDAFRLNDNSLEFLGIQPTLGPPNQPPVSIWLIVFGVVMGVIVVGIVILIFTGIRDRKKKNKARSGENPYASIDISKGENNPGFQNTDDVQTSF

In the case of `COc1cc(Nc2ncc(F)c(Nc3ccc4c(n3)NC(=O)C(C)(C)O4)n2)cc(OC)c1OC` [Compound 1, N4-(2,2-Dimethyl-3-oxo-4H-5-pyrid[1,4]oxazin-6-yl)-5-fluoro-N2-(3,4,5-trimethoxyphenyl)-2,4-pyrimidinediamine], the MUC1 entry with MUC1 is reported as “reduced MUC1”. This compound showed a solubility in series [1] of 1 to 2 µg/mL (≈ 2.13 to 4.25 µM). In addition, the “protection in LPS-induced ALI” value in the series with LPS-induced ALI is on record as “protective”.

Consider `COc1cc(Nc2ncc(F)c(Nc3ccc4c(n3)N(COP(=O)(O)O)C(=O)C(C)(C)O4)n2)cc(OC)c1OC` [Compound 4], for which, in the series with human neutrophils, the NETosis result is recorded as “block NETosis”. Further, the “oral bioavailability when formulated with progroup -CH2-O-P(O)(OH)2” value in [2] is “increased dramatically”. For the same compound, the safety profile result in [3] is recorded as “manageable safety profile”. Besides, in [4], the bleeding episodes result is “decreased bleeding episodes” and the platelet counts entry is “increased platelet counts”. Further, the “plasma levels of IL-6” value in the series with IL-6 is recorded as “reduce plasma levels of IL-6”. The compound further showed a solubility in “physchem” of more than 5000 µg/mL. Besides, in the series on COVID-19 [5] (vs placebo), the “occurrence of several severe symptoms of COVID-19 (AKI, kidney malfunction, acute lung injury, thrombosis, coagulopathy)” value was “significantly reduced” and the “percentage of COVID-19 infected patients that develop severe disease that requires intensive care” value is “significantly reduce”. The “percentage of patients developing severe or critical disease” value in the series with COVID-19 [5] (within 29 days of first dose, vs placebo) is given as “significantly smaller percentage”. For the same compound, the “percentage of patients that develop ARDS” value in the series on COVID-19 [5] (within patients requiring intensive care) was “significantly reduce”. For the same compound, the “number of patients that die” value in the series with COVID-19 [5] (within patients that develop ARDS) was “significantly reduce”.

As to `O=c1nc(NO)ccn1[C@@H]1O[C@H](CO)[C@@H](O)[C@H]1O` [N4-hydroxycytidine], the inhibition of coronaviruses entry in series [6] is “inhibit SARS-CoV-2 as well as other human and bat coronaviruses”; in series [7], “inhibit SARS-CoV-2 as well as other human and bat coronaviruses”.

As for `C[C@]12CCC(=O)C=C1CC[C@@H]1[C@@H]2[C@@H](O)C[C@@]2(C)[C@H]1CC[C@]2(O)C(=O)CO` [hydrocortisone, Hydrocortisone], in the series on COVID-19 [8], the mortality rate result is “effective in reducing mortality rate”.

Turning to `N[C@@H](CCN[C@@H](CCN1CC[C@H]1C(=O)O)C(=O)O)C(=O)O` [nicotianamine], the IC50 on human ACE2 was 84 nM.

For orientation: solubility means the dissolved amount per volume that the medium holds. Low readings indicate little dissolved substance, high ones much dissolved substance. The IC50 is the concentration that gives 50% inhibition.
